Test results reported in patent US20260022143A1, “Cyclic Peptide Inhibitors of IL-23” (JANSSEN PHARMACEUTICA NV, priority 2022, published 2026).
Starred links: 1 amine or outer side, 2 acyl side, 3 side chain; linkers in the order of their positions; H or OH if unused. Positions of bridges follow the written chain, without caps; N, C: chain ends. Non-standard residues stand in square brackets, D forms with d. Residues, ends and D or L forms follow the SMILES beside them. Groups on a side chain read outwards from the residue. *: point of attachment. Me3N+(CH2)2O(CH2)2O(CH2)2CO = C[N+](C)(C)CCOCCOCCC(=O)*; CH2CH2OCH2CH2OCH2CH2NMe3+ = C[N+](C)(C)CCOCCOCC*; Phe(4-N3) = [N-]=[N+]=Nc1ccc(C[C@H](N)C(=O)O)cc1; Trp(7-Me) = Cc1cccc2c(C[C@H](N)C(=O)O)c[nH]c12; X20 = C[N+](C)(C)CC[C@H](N[*:1])C(=O)[*:2]; X15 = CC(=O)N(C)C[C@H](N[*:1])C(=O)[*:2]; γGlu = O=C(O)[C@H](CCC(=O)[*:2])N[*:1]; 2Nal = N[C@@H](Cc1ccc2ccccc2c1)C(=O)O; 3Pal = N[C@@H](Cc1cccnc1)C(=O)O; Lys(Me) = CNCCCC[C@H](N)C(=O)O; Agb = N=C(N)NCC[C@H](N)C(=O)O; NMeK = CN[C@@H](CCCCN)C(=O)O; Pen = CC(C)(S)[C@H](N)C(=O)O; Lauroyl = CCCCCCCCCCCC(=O)*; X11 = N=C(N)NCCOCCOCCC(=O)*; Thp = NC1(C(=O)O)CCOCC1; X3 = C[N+](C)(C)CCCCC*; AEEA = NCCOCCOCC(=O)O; Sar = CNCC(=O)O

Tests used:
[1] = Exposed Polar Surface Area (EPSA); format: physicochemical; details: SFC on Chirex 3014 column; sample 1 mM DMSO stock; read-out: EPSA
How it was run: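 Polarity descriptor in Å² derived from retention time using 8 calibration standards re-run every 20 compounds. Duplicate injections of 1 mM DMSO stock; linear 5–60% modifier gradient (20 mM ammonium formate in MeOH) with CO2 at 4 mL/min, 35 °C, on a Chirex 3014 column.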

[2] = target: T1, IL-23R (Homo sapiens, UniProt Q5VWK5); assay: IL23R Reporter Assay; format: cell-based; details: HEK293 cells containing IL-23R, IL-12RP1 and STAT-inducible firefly luciferase reporter; 10 ng/mL IL-23 (EC90); 5 h at 37° C.; read-out: IL23R Reporter Assay
T1 construct: host or cells: HEK293
T1 sequence (Q5VWK5 24-629): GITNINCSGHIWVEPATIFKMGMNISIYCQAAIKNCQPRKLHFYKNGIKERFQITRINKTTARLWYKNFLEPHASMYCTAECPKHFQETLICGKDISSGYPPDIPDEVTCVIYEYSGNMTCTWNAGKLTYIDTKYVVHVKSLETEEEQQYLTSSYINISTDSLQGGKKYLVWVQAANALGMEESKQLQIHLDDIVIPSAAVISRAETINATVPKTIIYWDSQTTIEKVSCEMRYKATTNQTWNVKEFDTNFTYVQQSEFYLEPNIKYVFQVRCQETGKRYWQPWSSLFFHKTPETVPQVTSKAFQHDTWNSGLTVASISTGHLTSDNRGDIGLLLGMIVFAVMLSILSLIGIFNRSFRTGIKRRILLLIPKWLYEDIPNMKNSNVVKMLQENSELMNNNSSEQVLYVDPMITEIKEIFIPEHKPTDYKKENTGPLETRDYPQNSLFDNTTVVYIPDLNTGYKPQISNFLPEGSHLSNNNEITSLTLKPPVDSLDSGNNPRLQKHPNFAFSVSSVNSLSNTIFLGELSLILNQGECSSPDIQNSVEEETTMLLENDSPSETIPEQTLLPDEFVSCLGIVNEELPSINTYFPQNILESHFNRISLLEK

Compound | EPSA [1] [A^2] | IC50 [2] [nM]
CCCCCCCCCCCC(=O)N[C@@H](CCC(=O)NCCOCCOCC(=O)NCCOCCOCC(=O)NCCOCCOCC(=O)NCCOCCOCC(=O)NCCCC[C@@H](NC(=O)CCOCCOCC[N+](C)(C)C)C(=O)N[C@@H]1C(=O)N[C@@H](CC(=O)N(C)C)C(=O)N[C@@H]([C@@H](C)O)C(=O)N[C@@H](Cc2c[nH]c3c(C)cccc23)C(=O)N[C@@H](CCCCNC(C)=O)C(=O)N[C@H](C(=O)N[C@@H](Cc2ccc(OCCCCC[N+](C)(C)C)cc2)C(=O)N[C@@H](Cc2ccc3ccccc3c2)C(=O)NC2(C(=O)N[C@@H](CCCCN(C)C(C)=O)C(=O)N[C@@H](CC(N)=O)C(=O)N[C@@H](Cc3cccnc3)C(=O)N(C)[C@@H](CCCCNC(=O)COCCOCCNC(=O)COCCOCCNC(=O)COCCOCCNC(=O)COCCOCCNC(=O)CC[C@H](NC(=O)CCCCCCCCCCC)C(=O)O)C(N)=O)CCOCC2)C(C)(C)SSC1(C)C)C(=O)O [compound 404, cPEG3aCO-k(PEG2PEG2PEG2PEG2gEC12)-Pen(3)-N(N(Me)2)-T-7MeW-K(Ac)-Pen(3)-TMAPF-2Nal-THP-K(NMeac)-N-3Pya-NMeK(PEG2PEG2PEG2PEG2gEC12)-CONH2] ({Me3N+(CH2)2O(CH2)2O(CH2)2CO}-[dK]([AEEA-AEEA-AEEA-AEEA-γGlu-Lauroyl])[Pen]D(NMe2)T[Trp(7-Me)]K(Ac)[Pen]Y(X3)[2Nal][Thp][Lys(Me)](Ac)N[3Pal][NMeK]([AEEA-AEEA-AEEA-AEEA-γGlu-Lauroyl])-NH2; disulfide 2-7) | 196 | 31
CC(=O)N(C)CCCC[C@@H]1NC(=O)[C@H](Cc2c[nH]c3c(C)cccc23)NC(=O)[C@H]([C@@H](C)O)NC(=O)[C@H](CC(=O)N(C)C)NC(=O)[C@@H](NC(=O)CCOCCOCCNC(=N)N)C(C)(C)SSC(C)(C)[C@@H](C(=O)N[C@@H](Cc2ccc(OCCOCCOCC[N+](C)(C)C)cc2)C(=O)N[C@@H](Cc2ccc3ccccc3c2)C(=O)NC2(C(=O)N[C@@H](CCCCN(C)C(C)=O)C(=O)N[C@@H](CC(N)=O)C(=O)N[C@@H](Cc3cccnc3)C(=O)N(C)CC(=O)N(C)C)CCOCC2)NC1=O [compound 406, cPEG3gCO-Pen(3)-N(N(Me)2)-T-7MeW-K(NMeAc)-Pen(3)-APEG3F-2Nal-THP-K(NMeAc)-N-3Pya-Sar-CON(Me)2] (X11-[Pen]D(NMe2)T[Trp(7-Me)][Lys(Me)](Ac)[Pen]Y(CH2CH2OCH2CH2OCH2CH2NMe3+)[2Nal][Thp][Lys(Me)](Ac)N[3Pal][Sar]-NMe2; disulfide 1-6) | 150 | 2.1
CCCCCCCCCCCC(=O)N[C@@H](CCC(=O)NCCOCCOCC(=O)NCCOCCOCC(=O)NCCOCCOCC(=O)NCCOCCOCC(=O)NCCCC[C@H](NC(=O)COCCOCCNC(=O)COCCOCCNC(=O)COCCOCCNC(=O)COCCOCCNC(=O)CC[C@H](NC(=O)CCCCCCCCCCC)C(=O)O)C(=O)NCCOCCOCC(=O)NCCOCCOCC(=O)NCCCC[C@@H](C(N)=O)N(C)C(=O)[C@H](Cc1cccnc1)NC(=O)[C@H](CC(N)=O)NC(=O)[C@H](CCCCN(C)C(C)=O)NC(=O)C1(NC(=O)[C@H](Cc2ccc3ccccc3c2)NC(=O)[C@H](Cc2ccc(OCCCCC[N+](C)(C)C)cc2)NC(=O)[C@H]2NC(=O)[C@H](CCCCNC(C)=O)NC(=O)[C@H](Cc3c[nH]c4c(C)cccc34)NC(=O)[C@H]([C@@H](C)O)NC(=O)[C@H](CC(=O)N(C)C)NC(=O)[C@@H](NC(=O)CCOCCOCC[N+](C)(C)C)C(C)(C)SSC2(C)C)CCOCC1)C(=O)O [compound 409, cPEG3aCO-Pen(3)-N(N(Me)2)-T-7MeW-K(Ac)-Pen(3)-TMAPF-2Nal-THP-K(NMeac)-N-3Pya-NMeK(PEG2PEG2K(PEG2PEG2PEG2PEG2gEC12)2)-CONH2] | 198 | 47
CC(=O)N(C)CCCC[C@@H]1NC(=O)[C@H](Cc2c[nH]c3c(C)cccc23)NC(=O)[C@H]([C@@H](C)O)NC(=O)[C@H](CCNC(=N)N)NC(=O)[C@@H](NC(=O)CCOCCOCC[N+](C)(C)C)C(C)(C)SSC(C)(C)[C@@H](C(=O)N[C@@H](Cc2ccc(OCCOCCOCC[N+](C)(C)C)cc2)C(=O)N[C@@H](Cc2ccc3ccccc3c2)C(=O)NC2(C(=O)N[C@@H](CCCCN(C)C(C)=O)C(=O)N[C@@H](CC(N)=O)C(=O)N[C@@H](Cc3cccnc3)C(=O)N(C)CC(=O)N(C)C)CCOCC2)NC1=O [compound 411, cPEG3aCO-Pen(3)-Gab-T-7MeW-K(NMeAc)-Pen(3)-APEG3F-2Nal-THP-K(NMeAc)-N-3Pya-Sar-CON(Me)2] ({Me3N+(CH2)2O(CH2)2O(CH2)2CO}-[Pen][Agb]T[Trp(7-Me)][Lys(Me)](Ac)[Pen]Y(CH2CH2OCH2CH2OCH2CH2NMe3+)[2Nal][Thp][Lys(Me)](Ac)N[3Pal][Sar]-NMe2; disulfide 1-6 (inferred)) | 155 | 2.1

Second part, the compound after the results:

EPSA [1] [A^2] | IC50 [2] [nM] | Compound
148 | 4.4 | CC(=O)NCCCC[C@@H]1NC(=O)[C@H](Cc2c[nH]c3c(C)cccc23)NC(=O)[C@H]([C@@H](C)O)NC(=O)[C@H](CC(=O)N(C)C)NC(=O)[C@@H](NC(=O)CCOCCOCC[N+](C)(C)C)C(C)(C)SSC(C)(C)[C@@H](C(=O)N[C@@H](Cc2ccc(OCCCCC[N+](C)(C)C)cc2)C(=O)N[C@@H](Cc2ccc3ccccc3c2)C(=O)NC2(C(=O)N[C@@H](CN(C)C(C)=O)C(=O)N[C@@H](CC(N)=O)C(=O)N[C@@H](Cc3cccnc3)C(=O)N(C)CC(=O)N(C)C)CCOCC2)NC1=O [compound 415, cPEG3aCO-Pen(3)-N(N(Me)2)-T-7MeW-K(Ac)-Pen(3)-TMAPF-2Nal-THP-Dap(NMeAc)-N-3Pya-Sar-CON(Me)2] ({Me3N+(CH2)2O(CH2)2O(CH2)2CO}-[Pen]D(NMe2)T[Trp(7-Me)]K(Ac)[Pen]Y(X3)[2Nal][Thp][X15]N[3Pal][Sar]-NMe2; disulfide 1-6 (inferred))
166 | 1.2 | CC(=O)N(C)CCCC[C@@H]1NC(=O)[C@H](Cc2c[nH]c3c(C)cccc23)NC(=O)[C@H]([C@@H](C)O)NC(=O)[C@H](CC[N+](C)(C)C)NC(=O)[C@@H](NC(=O)CCOCCOCC[N+](C)(C)C)C(C)(C)SSC(C)(C)[C@@H](C(=O)N[C@@H](Cc2ccc(OCCOCCOCC[N+](C)(C)C)cc2)C(=O)N[C@@H](Cc2ccc3ccccc3c2)C(=O)NC2(C(=O)N[C@@H](CCCCN(C)C(C)=O)C(=O)N[C@@H](CC(N)=O)C(=O)N[C@@H](Cc3cccnc3)C(=O)N(C)CC(=O)N(C)C)CCOCC2)NC1=O [compound 416, cPEG3aCO-Pen(3)-Dab(Me)3-T-7MeW-K(NMeAc)-Pen(3)-APEG3F-2Nal-THP-K(NMeAc)-N-3Pya-Sar-CON(Me)2] ({Me3N+(CH2)2O(CH2)2O(CH2)2CO}-[Pen][X20]T[Trp(7-Me)][Lys(Me)](Ac)[Pen]Y(CH2CH2OCH2CH2OCH2CH2NMe3+)[2Nal][Thp][Lys(Me)](Ac)N[3Pal][Sar]-NMe2; disulfide 1-6)
167 | 1.4 | CC(=O)NCCCC[C@@H]1NC(=O)[C@H](Cc2c[nH]c3c(C)cccc23)NC(=O)[C@H]([C@@H](C)O)NC(=O)[C@H](CC(N)=O)NC(=O)[C@@H](NC(C)=O)C(C)(C)SSC(C)(C)[C@@H](C(=O)N[C@@H](Cc2ccc(N=[N+]=[N-])cc2)C(=O)N[C@@H](Cc2ccc3ccccc3c2)C(=O)NC2(C(=O)N[C@@H](CCCCNC(C)=O)C(=O)N[C@@H](CC(N)=O)C(=O)N[C@@H](Cc3cccnc3)C(=O)N(C)CC(N)=O)CCOCC2)NC1=O [compound 417] (Ac-[Pen]NT[Trp(7-Me)]K(Ac)[Pen][Phe(4-N3)][2Nal][Thp]K(Ac)N[3Pal][Sar]-NH2; disulfide 1-6 (inferred))
166 | 1.2 | CC(=O)NCCCC[C@@H]1NC(=O)[C@H](Cc2c[nH]c3c(C)cccc23)NC(=O)[C@H]([C@@H](C)O)NC(=O)[C@H](CC(N)=O)NC(=O)[C@@H](NC(=O)CCOCCOCC[N+](C)(C)C)C(C)(C)SSC(C)(C)[C@@H](C(=O)N[C@@H](Cc2ccc(N=[N+]=[N-])cc2)C(=O)N[C@@H](Cc2ccc3ccccc3c2)C(=O)NC2(C(=O)N[C@@H](CCCCNC(C)=O)C(=O)N[C@@H](CC(N)=O)C(=O)N[C@@H](Cc3cccnc3)C(=O)N(C)CC(N)=O)CCOCC2)NC1=O [compound 418, cPEG3aCO-Pen(3)-N-T-7MeW-K(Ac)-Pen(3)-F(4N3)-2Nal-THP-K(Ac)-N-3Pya-Sar-CONH2] ({Me3N+(CH2)2O(CH2)2O(CH2)2CO}-[Pen]NT[Trp(7-Me)]K(Ac)[Pen][Phe(4-N3)][2Nal][Thp]K(Ac)N[3Pal][Sar]-NH2; disulfide 1-6)
156 | 3 | CC(=O)N(C)CCCC[C@@H]1NC(=O)[C@H](Cc2c[nH]c3c(C)cccc23)NC(=O)[C@H]([C@@H](C)O)NC(=O)[C@H](CC(=O)N(C)C)NC(=O)[C@@H](NC(=O)CCOCCOCC[N+](C)(C)C)C(C)(C)SSC(C)(C)[C@@H](C(=O)N[C@@H](Cc2ccc(OCCOCCOCC[N+](C)(C)C)cc2)C(=O)N[C@@H](Cc2ccc3ccccc3c2)C(=O)NC2(C(=O)N[C@@H](CN(C)C(C)=O)C(=O)N[C@@H](CC(N)=O)C(=O)N[C@@H](Cc3cccnc3)C(=O)N(C)CC(=O)N(C)C)CCOCC2)NC1=O [compound 419, cPEG3aCO-Pen(3)-N(N(Me)2)-T-7MeW-K(NMeAc)-Pen(3)-APEG3F-2Nal-THP-Dap(NMeAc)-N-3Pya-Sar-CON(Me)2] ({Me3N+(CH2)2O(CH2)2O(CH2)2CO}-[Pen]D(NMe2)T[Trp(7-Me)][Lys(Me)](Ac)[Pen]Y(CH2CH2OCH2CH2OCH2CH2NMe3+)[2Nal][Thp][X15]N[3Pal][Sar]-NMe2; disulfide 1-6)
